Measurements taken from patent US12624044B2, “SMARCA degraders and uses thereof” (Kymera Therapeutics, Inc., priority 2019, dated 2026).

Legend:
Format in all cases: cell-based
[1] = molecular target: T1, SMARCA2 (Homo sapiens, UniProt P51531); assay: MSD SMARCA2 degradation in A549 cell line; conditions: 24 h; for DC50: A549 cells, read-out: SMARCA2 MSD A549 degradation 24 h: Average external-Abs DC50; for Dmax: A549, A549 cells
Method in brief: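 SMARCA2 remaining was measured by MSD electrochemiluminescence on RIPA lysates (anti-SMARCA2 plus SULFO-TAG anti-rabbit). Prior exposure: 24 h of A549 cells to a 10-point, 3-fold dilution series topping at 1000 nM final; Dmax % given as graded codes.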

[2] = molecular target: T2, SMARCA4 (Homo sapiens, UniProt P51532); assay: SMARCA4 Western blot MV4-11 degradation; conditions: 24 h; for DC50: MV4-11 cells, read-out: SMARCA4 WB MV411 degradation 24 h: Average external-Abs DC50; for Dmax: MV4-11, MV4-11 cells, read-out: SMARCA4 WB MV411 degradation 24 h: Average Dmax %
T2 construct: SMARCA2 and SMARCA4 protein degradation in MV4-11 cells; endogenous in cells; host or cells: MV4-11
Procedure: Cells were seeded into 6-well plates (MV4-11: 4×10^6 cells/well/1 ml) and 1 ml of 2× compound solution was added into the well to make the final concentration and the plates were mixed well and incubated for 24 hours (No cytotoxicity was observed). The cell were collected with media and spun at 3000 rpm for 5 minutes. The supernatant was aspirated and the well and the cells were washed with cold PBS once and combined for centrifugation again; the supernatant aspirated again. 200 ul pre-chilled RIPAlysis buffer (Boston BioProducts BP-115D) with protease/phosphatase inhibitor (Roche 05892791001/Roche 04906837001) was directly added into the tube to lyze the cells for 20 minutes on ice. The cell lysate were collected into EP tubes and spun at 13000 rpm for 20 minutes and 72 ul supernatant was transferred to a fresh EP tube containing 18 ul of 5× loading buffer (Beyotime Bio P0015) to make the loading samples. The samples were heated to 100° C. for 10 minutes and cooled to RT and microcentrifuged. 20 ul of samples were loaded onto SDS-PAGE gel (Novex, WG1402BOX) and the gel was run at 80 V for 20 minutes and 120 V for 1.5 hours. The samples were electrotransfer to a NC membrane using wet-transfer method with 250 mA for 2.5 hours. The membrane was blocked with LICOR blocking buffer (LI-COR, 927-50000) for 1 hour. The membrane was washed three times with TBST (CST #9997S), 5 minutes each. Incubation was performed with primary antibody prepared in blocking buffer with 0.1% Tween-20 (Solarbio, P8220) at 4° C. overnight (Anti-SMARCA2/BRM antibody (ab15597) 1:500; Anti-BRG1 antibody [EPR3912] (ab108318) 1:1000; Rabbit anti-Baf180 antibody [EPR15860] (Abcam, ab196022) 1:1000; mouse anti-beta-Actin (8H10D10) (CST #3700) 1:10000). The membrane was washed three times with TBST, 5 minutes each. Incubation with secondary antibody was performed for 1 hour at RT (anti-rabbit IgG (Licor, 926-32211) 1:5000; anti-mouse IgG (LI-COR, 926-68070) 1:5000). The membrane was washed three times with TBST, 5 minutes each and lastly the LiCOR was read.
The letter codes for the percentage of SMARCA degradation after 24 hours (Dmax %) include: A (>90% degradation), B (>70-90% degradation), C (50-70% degradation), and D (<50% degradation).

[3] = molecular target: T1, SMARCA2; assay: MSD SMARCA2 degradation in NCI-H1299 cell line (24 h); parameters: HC: NCI-H1299 cells treated with DMSO; host or cells: NCI-H1299; conditions: for Dmax: NCI-H1299, NCI-H1299 cells; for DC50: NCI-H1299 cells, read-out: SMARCA2 MSD H1299 degradation 24 h: External Abs-DC50
Method in brief: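 SMARCA2 measured by MSD electrochemiluminescence (primary 0.3 ug/ml, secondary 1 ug/ml) on lysates from NCI-H1299 cells exposed to compounds for 24 h across nine 3-fold dilutions. Signal scaled from A2780 cells (no SMARCA2) to DMSO-treated H1299 controls, and maximal degradation after 24 h reported in letter categories.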

T2 sequence (P51532 whole entry): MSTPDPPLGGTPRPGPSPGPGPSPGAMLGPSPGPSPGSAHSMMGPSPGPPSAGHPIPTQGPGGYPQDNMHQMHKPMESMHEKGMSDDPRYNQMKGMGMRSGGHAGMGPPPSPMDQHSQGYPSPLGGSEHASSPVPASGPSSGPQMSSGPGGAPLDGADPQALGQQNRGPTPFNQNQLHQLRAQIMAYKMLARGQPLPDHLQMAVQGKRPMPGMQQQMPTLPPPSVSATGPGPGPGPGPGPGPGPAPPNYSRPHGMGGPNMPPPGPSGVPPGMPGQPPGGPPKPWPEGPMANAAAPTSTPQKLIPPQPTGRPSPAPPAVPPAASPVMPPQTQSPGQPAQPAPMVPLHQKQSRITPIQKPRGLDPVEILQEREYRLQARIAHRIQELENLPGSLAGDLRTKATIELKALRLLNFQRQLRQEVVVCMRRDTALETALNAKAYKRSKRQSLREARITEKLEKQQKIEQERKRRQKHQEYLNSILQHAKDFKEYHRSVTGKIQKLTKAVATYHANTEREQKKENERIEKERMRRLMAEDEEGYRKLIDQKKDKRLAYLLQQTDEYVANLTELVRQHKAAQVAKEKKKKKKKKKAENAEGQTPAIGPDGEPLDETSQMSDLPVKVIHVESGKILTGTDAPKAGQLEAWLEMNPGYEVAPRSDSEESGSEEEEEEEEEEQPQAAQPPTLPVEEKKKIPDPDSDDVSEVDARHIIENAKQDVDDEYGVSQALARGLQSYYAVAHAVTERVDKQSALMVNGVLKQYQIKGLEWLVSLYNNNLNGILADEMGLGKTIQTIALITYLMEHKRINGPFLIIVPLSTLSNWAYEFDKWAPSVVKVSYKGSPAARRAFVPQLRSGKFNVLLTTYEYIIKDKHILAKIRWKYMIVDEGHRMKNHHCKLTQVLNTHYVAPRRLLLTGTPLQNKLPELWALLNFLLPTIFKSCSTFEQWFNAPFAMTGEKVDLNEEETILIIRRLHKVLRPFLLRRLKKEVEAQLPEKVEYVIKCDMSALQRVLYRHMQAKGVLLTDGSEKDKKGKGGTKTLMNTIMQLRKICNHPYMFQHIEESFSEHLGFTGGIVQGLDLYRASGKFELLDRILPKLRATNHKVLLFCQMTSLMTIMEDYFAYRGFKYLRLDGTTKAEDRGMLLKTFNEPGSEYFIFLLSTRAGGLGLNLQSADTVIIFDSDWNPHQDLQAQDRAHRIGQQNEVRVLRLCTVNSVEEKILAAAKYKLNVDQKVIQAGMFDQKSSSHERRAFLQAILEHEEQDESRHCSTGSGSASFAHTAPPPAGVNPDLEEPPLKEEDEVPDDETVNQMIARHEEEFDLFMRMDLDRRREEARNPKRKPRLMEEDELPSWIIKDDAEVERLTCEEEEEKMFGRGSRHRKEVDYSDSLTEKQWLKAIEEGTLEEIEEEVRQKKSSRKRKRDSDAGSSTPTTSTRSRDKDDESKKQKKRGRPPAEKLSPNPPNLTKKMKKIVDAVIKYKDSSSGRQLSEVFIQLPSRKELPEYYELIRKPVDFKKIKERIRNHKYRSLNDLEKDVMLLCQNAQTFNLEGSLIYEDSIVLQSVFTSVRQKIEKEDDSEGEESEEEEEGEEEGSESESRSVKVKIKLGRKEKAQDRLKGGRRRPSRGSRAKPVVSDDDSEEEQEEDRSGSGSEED
T1 sequence (P51531 whole entry): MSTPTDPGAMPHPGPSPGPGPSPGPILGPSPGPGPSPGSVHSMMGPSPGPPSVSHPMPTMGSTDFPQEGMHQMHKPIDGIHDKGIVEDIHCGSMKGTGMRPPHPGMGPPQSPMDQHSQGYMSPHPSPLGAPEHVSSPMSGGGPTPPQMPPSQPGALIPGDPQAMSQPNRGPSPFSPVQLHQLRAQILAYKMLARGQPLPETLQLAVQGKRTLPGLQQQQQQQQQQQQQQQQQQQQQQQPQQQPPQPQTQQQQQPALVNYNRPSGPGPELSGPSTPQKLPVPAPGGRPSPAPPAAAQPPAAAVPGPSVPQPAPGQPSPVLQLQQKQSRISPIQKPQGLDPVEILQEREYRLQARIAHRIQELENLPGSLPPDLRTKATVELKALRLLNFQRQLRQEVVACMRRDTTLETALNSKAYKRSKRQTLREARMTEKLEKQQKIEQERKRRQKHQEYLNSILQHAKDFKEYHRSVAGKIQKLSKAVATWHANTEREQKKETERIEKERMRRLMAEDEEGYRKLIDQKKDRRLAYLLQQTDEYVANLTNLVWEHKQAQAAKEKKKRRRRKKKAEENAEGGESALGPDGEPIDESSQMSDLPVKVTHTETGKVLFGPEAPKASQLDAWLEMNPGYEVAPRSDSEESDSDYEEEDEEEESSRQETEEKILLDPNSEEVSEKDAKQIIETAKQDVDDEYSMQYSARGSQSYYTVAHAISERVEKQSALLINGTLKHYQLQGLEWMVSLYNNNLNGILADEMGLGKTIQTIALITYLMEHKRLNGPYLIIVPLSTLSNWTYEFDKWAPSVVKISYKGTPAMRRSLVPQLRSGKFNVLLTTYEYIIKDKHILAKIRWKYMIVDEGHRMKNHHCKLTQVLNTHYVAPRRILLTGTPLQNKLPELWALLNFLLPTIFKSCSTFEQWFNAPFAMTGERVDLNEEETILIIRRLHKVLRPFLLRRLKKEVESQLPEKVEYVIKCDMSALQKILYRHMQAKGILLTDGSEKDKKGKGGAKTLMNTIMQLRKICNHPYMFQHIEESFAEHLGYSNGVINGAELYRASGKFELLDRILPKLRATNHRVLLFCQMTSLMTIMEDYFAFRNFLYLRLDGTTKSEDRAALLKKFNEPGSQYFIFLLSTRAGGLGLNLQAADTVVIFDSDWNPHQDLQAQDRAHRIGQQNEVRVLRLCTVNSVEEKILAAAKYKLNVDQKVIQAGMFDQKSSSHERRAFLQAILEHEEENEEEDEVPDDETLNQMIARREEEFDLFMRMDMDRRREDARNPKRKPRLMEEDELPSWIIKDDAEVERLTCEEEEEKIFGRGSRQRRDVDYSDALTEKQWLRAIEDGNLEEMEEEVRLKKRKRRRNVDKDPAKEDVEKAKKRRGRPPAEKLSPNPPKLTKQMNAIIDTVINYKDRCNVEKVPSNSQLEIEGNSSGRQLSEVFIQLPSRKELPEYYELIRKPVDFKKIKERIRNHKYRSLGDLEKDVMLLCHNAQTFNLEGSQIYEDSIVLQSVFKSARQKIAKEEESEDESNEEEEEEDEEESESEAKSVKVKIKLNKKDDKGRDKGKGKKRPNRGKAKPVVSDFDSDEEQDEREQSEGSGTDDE

SMILES	DC50 [2] [nM]	Dmax [2] [%]	Dmax [3] [%]	DC50 [3] [nM]	DC50 [1] [nM]	Dmax [1] [%]
Cn1c(=O)n(C2CCC(=O)NC2=O)c2ccc(C3CC4(C3)CC(N3CCC(c5cnc(N6C7CCC6CN(c6cc(-c8ccccc8O)nnc6N)C7)nc5)CC3)C4)cc21 (single isomer, unassigned) [I-536 (P2), 3-(5-(6-(4-(2-(3-(3-amino-6-(2-hydroxyphenyl)pyridazin-4-yl)-3,8-diazabicyclo[3.2.1]octan-8-yl)pyrimidin-5-yl)piperidin-1-yl)spiro[3.3]heptan-2-yl)-3-methyl-2-oxo-2,3-dihydro-1H-benzo[d]imidazol-1-yl)piperidine-2,6-dione]	< 100	–	–	–	< 100	–
Cn1c(=O)n(C2CCC(=O)NC2=O)c2ccc(C3CC4(C3)CC(N3CCC(c5cnc(N6C7CCC6CN(c6cc(-c8ccccc8O)nnc6N)C7)nc5)CC3)C4)cc21 (single isomer, unassigned) [I-536 (P3), 3-(5-(6-(4-(2-(3-(3-amino-6-(2-hydroxyphenyl)pyridazin-4-yl)-3,8-diazabicyclo[3.2.1]octan-8-yl)pyrimidin-5-yl)piperidin-1-yl)spiro[3.3]heptan-2-yl)-3-methyl-2-oxo-2,3-dihydro-1H-benzo[d]imidazol-1-yl)piperidine-2,6-dione]	< 100	–	–	–	< 100	–
Cn1c(=O)n(C2CCC(=O)NC2=O)c2ccc(CCCN3CCC(c4nccc(N5C6CCC5CN(c5cc(-c7ccccc7O)nnc5N)C6)n4)CC3)cc21 (stereo not shown) [I-278]	< 100	> 90	–	–	< 100	> 90
Cn1c(=O)n(C2CCC(=O)NC2=O)c2ccc([C@H]3CC[C@@H](N4CCC(c5nccc(N6C7CCC6CN(c6cc(-c8ccccc8O)nnc6N)C7)n5)CC4)CC3)cc21 (stereo partly shown) [I-279, 3-(5-((1s,4s)-4-(4-(4-(3-(3-amino-6-(2-hydroxyphenyl)pyridazin-4-yl)-3,8-diazabicyclo[3.2.1]octan-8-yl)pyrimidin-2-yl)piperidin-1-yl)cyclohexyl)-3-methyl-2-oxo-2,3-dihydro-1H-benzo[d]imidazol-1-yl)piperidine-2,6-dion]	< 100	> 90	–	–	< 100	> 90
Cn1c(=O)n(C2CCC(=O)NC2=O)c2ccc([C@H]3CC[C@H](N4CCC(c5nccc(N6C7CCC6CN(c6cc(-c8ccccc8O)nnc6N)C7)n5)CC4)CC3)cc21 (stereo partly shown) [I-280, 3-(5-((1r,4r)-4-(4-(4-(3-(3-amino-6-(2-hydroxyphenyl)pyridazin-4-yl)-3,8-diazabicyclo[3.2.1]octan-8-yl)pyrimidin-2-yl)piperidin-1-yl)cyclohexyl)-3-methyl-2-oxo-2,3-dihydro-1H-benzo[d]imidazol-1-yl)piperidine-2,6-dione]	< 100	> 90	–	–	< 100	> 90
Nc1nnc(-c2ccccc2O)cc1-c1cnn(C2CCN([C@H]3CC[C@@H](CNc4ccc5c(c4)C(=O)N(C4CCC(=O)NC4=O)C5=O)CC3)CC2)c1 (stereo partly shown) [I-281, 5-((((1s,4s)-4-(4-(4-(3-amino-6-(2-hydroxyphenyl)pyridazin-4-yl)-1H-pyrazol-1-yl)piperidin-1-yl)cyclohexyl)methyl)amino)-2-(2,6-dioxopiperidin-3-yl)isoindoline-1,3-dione]	< 100	> 90	–	–	< 100	> 90
Cc1ncsc1-c1ccc(CNC(=O)[C@@H]2C[C@@H](O)CN2C(=O)[C@@H](NC(=O)CCCCN2CCC(Cn3cc(-c4cc(-c5ccccc5O)nnc4N)cn3)CC2)C(C)(C)C)cc1 [I-468]	100 to 500	< 50	< 50	> 1000	–	–
Cc1ncsc1-c1ccc(CNC(=O)[C@@H]2C[C@@H](O)CN2C(=O)[C@@H](NC(=O)CCCCN2CCC[C@@H](Cn3cc(-c4cc(-c5ccccc5O)nnc4N)cn3)C2)C(C)(C)C)cc1 [I-472]	100 to 500	50 to 70	< 50	100 to 500	–	–
Cc1ncsc1-c1ccc(CNC(=O)[C@@H]2C[C@@H](O)CN2C(=O)[C@@H](NC(=O)CN2CCN(Cc3ccc(-c4cc(-c5ccccc5O)nnc4N)cc3)CC2)C(C)(C)C)cc1 [I-473]	100 to 500	< 50	< 50	100 to 500	–	–
Cc1ncsc1-c1ccc(CNC(=O)[C@@H]2C[C@@H](O)CN2C(=O)[C@@H](NC(=O)CCCCN2CCN(Cc3ccc(-c4cc(-c5ccccc5O)nnc4N)cc3)CC2)C(C)(C)C)cc1 [I-476]	100 to 500	50 to 70	< 50	100 to 500	–	–
NCC#Cc1cnc(N2C3CCC2CN(c2cc(-c4ccccc4O)nnc2N)C3)nc1 [I-535, 2-[6-amino-5-[8-[5-(3-aminoprop-1-ynyl)pyrimidin-2-yl]-3,8-diazabicyclo[3.2.1]octan-3-yl]pyridazin-3-yl]phenol]	< 100	< 50	< 50	> 1000	–	–

Continued, in another order:

DC50 [2] [nM]	Dmax [2] [%]	Dmax [3] [%]	DC50 [3] [nM]	SMILES	DC50 [1] [nM]	Dmax [1] [%]
100 to 500	< 50	< 50	> 1000	Cc1ncsc1-c1ccc(CNC(=O)[C@@H]2C[C@@H](O)CN2C(=O)[C@@H](NC(=O)CN2CCCC(n3cc(-c4cc(-c5ccccc5O)nnc4N)cn3)C2)C(C)(C)C)cc1 (stereo partly shown) [I-452]	–	–
100 to 500	< 50	< 50	> 1000	Cc1ncsc1-c1ccc(CNC(=O)[C@@H]2C[C@@H](O)CN2C(=O)[C@@H](NC(=O)CCCCCN2CCCC(n3cc(-c4cc(-c5ccccc5O)nnc4N)cn3)C2)C(C)(C)C)cc1 (stereo partly shown) [I-456]	–	–
100 to 500	70 to 90	70 to 90	501 to 1000	Cc1ncsc1-c1ccc(CNC(=O)[C@@H]2C[C@@H](O)CN2C(=O)[C@@H](NC(=O)CN2CCC(n3cc(-c4cc(-c5ccccc5O)nnc4N)cn3)CC2)C(C)(C)C)cc1 [I-457]	–	–
100 to 500	< 50	< 50	100 to 500	Cc1ncsc1-c1ccc(CNC(=O)[C@@H]2C[C@@H](O)CN2C(=O)[C@@H](NC(=O)CCCN2CCC(n3cc(-c4cc(-c5ccccc5O)nnc4N)cn3)CC2)C(C)(C)C)cc1 [I-459]	–	–
100 to 500	< 50	< 50	100 to 500	Cc1ncsc1-c1ccc(CNC(=O)[C@@H]2C[C@@H](O)CN2C(=O)[C@@H](NC(=O)CCCCN2CCC(n3cc(-c4cc(-c5ccccc5O)nnc4N)cn3)CC2)C(C)(C)C)cc1 [I-460]	–	–
100 to 500	50 to 70	50 to 70	501 to 1000	Cc1ncsc1-c1ccc(CNC(=O)[C@@H]2C[C@@H](O)CN2C(=O)[C@@H](NC(=O)CCCCCN2CCC(n3cc(-c4cc(-c5ccccc5O)nnc4N)cn3)CC2)C(C)(C)C)cc1 [I-461]	–	–
100 to 500	< 50	< 50	> 1000	Cc1ncsc1-c1ccc(CNC(=O)[C@@H]2C[C@@H](O)CN2C(=O)[C@@H](NC(=O)CN2CCC(Cn3cc(-c4cc(-c5ccccc5O)nnc4N)cn3)CC2)C(C)(C)C)cc1 [I-465]	–	–
100 to 500	< 50	< 50	100 to 500	Cc1ncsc1-c1ccc(CNC(=O)[C@@H]2C[C@@H](O)CN2C(=O)[C@@H](NC(=O)CCCN2CCC(Cn3cc(-c4cc(-c5ccccc5O)nnc4N)cn3)CC2)C(C)(C)C)cc1 [I-467]	–	–
100 to 500	50 to 70	< 50	100 to 500	Cc1ncsc1-c1ccc(CNC(=O)[C@@H]2C[C@@H](O)CN2C(=O)[C@@H](NC(=O)CN2CCC[C@@H](Cn3cc(-c4cc(-c5ccccc5O)nnc4N)cn3)C2)C(C)(C)C)cc1 [I-469]	–	–
